Experimental data from patent publication US10689705B2, “FGFR3 fusion gene and pharmaceutical drug targeting same” (Chugai Seiyaku Kabushiki Kaisha, priority 2012, dated 2020).

What was measured:
[1] = test system: colon cancer-derived cell line HCT116; assay: cells; details: Homo sapiens, HCT-116, 96 h, read-out: HCT116 (CRC) IC50;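 further: proliferation measured with WST-8, IC50 derived by least-squares fitting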
[2] = test system: bladder cancer-derived cell line RT-4 which expresses an FGFR3-TACC3 fusion polypeptide; assay: tissue or blood; details: Homo sapiens, 96 h, read-out: RT-4 (Bladder) IC50
HT-1376 = assay: Cell proliferation inhibition, WST-8, four days (Example 3); type: cell-based; details: Homo sapiens, HT-1376, 96 h, does not express FGFR3
Method: (§1) IC50 was calculated using the least-square method.

UM-UC-14 = assay: as above; type: cell-based; details: Homo sapiens, UMUC14, 96 h, mutated type FGFR, no fusion
Method: as §1

SW780 = assay: as above; type: cell-based; details: Homo sapiens, SW780, 96 h, fusion polypeptide expressing
Method: as §1

BFTC-905 = assay: as above; type: cell-based; details: Homo sapiens, BFTC-905, 96 h, wild-type FGFR, no fusion
Method: as §1

RT4 = assay: as above; type: cell-based; details: Homo sapiens, RT-4, 96 h, fusion polypeptide expressing
Method: as §1

RT112/84 = assay: as above; type: cell-based; details: Homo sapiens, RT112/84, 96 h, fusion polypeptide expressing
Method: as §1

[3] = test system: RAT-2 cells that stably express FGFR3-BAIAP2L1; details: orally once daily from seven days after planting; concentration-dependent (FIG. 13)
[4] = test system: human bladder cancer cell line RT112/84; assay: Antitumor effect in cancer-bearing nude mice (FGFR3-TACC3 fusion); type: in vivo, BALB/c nude mice; details: RT112/84 xenograft
Method: Nude mice were quarantined for about one week before use, and subjected to subcutaneous transplantation of about 1×10^7 RT112/84 cells in the inguinal region. When the tumor size reached about 200 mm^3, the mice were used in experiments.
Antitumor effect was determined by comparing the tumor growth during 11 days after the first day of administration (Day 10 when the first day of administration is set at Day 0) with that of the control group. Tumor growth inhibitory effect(TGI)=(1−[Average tumor growth level of treated group]/[Average tumor growth level of control group])×100(%)

[5] = test system: human bladder cancer cell line SW780; assay: Antitumor effect in cancer-bearing nude mice (FGFR3-BAIAP2L1 fusion); type: in vivo, BALB/c nude mice; details: SW780 xenograft
Method: Nude mice were quarantined for about one week before use, and subjected to subcutaneous transplantation of 5×10^6 SW780 cells in the inguinal region. When the tumor size reached about 200 mm^3, the mice were used in experiments. […] Antitumor effect was determined by comparing the tumor growth during 11 days after the first day of administration (Day 10 when the first day of administration is set at Day 0) with that of the control group. Tumor growth inhibitory effect(TGI)=(1−[Average tumor growth level of treated group]/[Average tumor growth level of control group])×100(%)

| Compound | IC50 (HT-1376) [µM] | IC50 (SW780) [nM] | IC50 [1] [µM] | IC50 [2] [nM] | IC50 (UM-UC-14) [nM] | IC50 (BFTC-905) [µM] | IC50 (RT4) [nM] | IC50 (RT112/84) [nM] | tumor enlargement enhanced by the FGFR3-BAIAP2L1 fusion polypeptide [3] | TGI AFTER 11 DAYS ([4]; 25 mg/kg orally once a day) [%] | TGI AFTER 11 DAYS ([4]; 50 mg/kg orally once a day) [%] | TGI AFTER 11 DAYS ([4]; 100 mg/kg orally once a day) [%] | TGI AFTER 11 DAYS ([5]; 25 mg/kg orally once a day) [%] | TGI AFTER 11 DAYS ([5]; 50 mg/kg orally once a day) [%] | TGI AFTER 11 DAYS ([5]; 100 mg/kg orally once a day) [%] |
| --- | --- | --- | --- | --- | --- | --- | --- | --- | --- | --- | --- | --- | --- | --- | --- |
| Cc1nc2ccc(-n3ncc(C(=O)c4cc5ccccc5[nH]4)c3N)cc2[nH]1 [Compound 49] | – | – | 13 | 350 | – | – | – | – | – | – | – | – | – | – | – |
| Cc1nc2ccc(-n3ncc(C(=O)c4cc5ccccc5[nH]4)c3N)cc2[nH]1 [COMPOUND A] | > 10 | 120 | – | – | 110 | > 10 | 350 | 18 | significantly suppressed | 61 | 86 | 125 | 47 | 79 | 111 |
| CCN(CC)CCCCNc1ncc2cc(-c3cc(OC)cc(OC)c3)c(NC(=O)NC(C)(C)C)nc2n1 [COMPOUND B, PD173074] | 11 | 69 | – | – | 10 | 14 | 180 | 14 | – | – | – | – | – | – | – |

Now from value to compound, other results behind:

| IC50 (HT-1376) [µM] | IC50 (SW780) [nM] | Compound | IC50 [1] [µM] | IC50 [2] [nM] | IC50 (UM-UC-14) [nM] | IC50 (BFTC-905) [µM] | IC50 (RT4) [nM] | IC50 (RT112/84) [nM] | tumor enlargement enhanced by the FGFR3-BAIAP2L1 fusion polypeptide [3] | TGI AFTER 11 DAYS ([4]; 25 mg/kg orally once a day) [%] | TGI AFTER 11 DAYS ([4]; 50 mg/kg orally once a day) [%] | TGI AFTER 11 DAYS ([4]; 100 mg/kg orally once a day) [%] | TGI AFTER 11 DAYS ([5]; 25 mg/kg orally once a day) [%] | TGI AFTER 11 DAYS ([5]; 50 mg/kg orally once a day) [%] | TGI AFTER 11 DAYS ([5]; 100 mg/kg orally once a day) [%] |
| --- | --- | --- | --- | --- | --- | --- | --- | --- | --- | --- | --- | --- | --- | --- | --- |
| 6.7 | 160 | COc1cc(CCc2cc(NC(=O)c3ccc(N4C[C@@H](C)N[C@@H](C)C4)cc3)[nH]n2)cc(OC)c1 [COMPOUND C, AZD-4547] | – | – | 16 | 11 | 250 | 17 | – | – | – | – | – | – | – |
| 0.62 | 570 | CN1CCN(c2ccc3nc(-c4c(N)c5c(F)cccc5[nH]c4=O)[nH]c3c2)CC1 [COMPOUND F, dovitinib] | – | – | 75 | 2.8 | 250 | 130 | – | – | – | – | – | – | – |
| 10 | 1100 | CCN1CCN(c2ccc(Nc3cc(N(C)C(=O)Nc4c(Cl)c(OC)cc(OC)c4Cl)ncn3)cc2)CC1 [COMPOUND D, BGJ-398] | – | – | 17 | > 20 | 230 | 18 | – | – | – | – | – | – | – |
